Experimental data reported in patent publication US10046060B2, “Co-administration of an agent linked to an internalization peptide with an anti-inflammatory” (NoNO Inc., priority 2007, dated 2018).
Where two headings read alike, the source gives them in different places. Square brackets hold non-standard residues; d marks the D form. Ends that are not written are not given here.

How the values were obtained:
[1] = Table 1 comment; cited from earlier work
rats = assay: Mean arterial pressure (MAP) in rats after Tat peptides with or without anti-inflammatory agents
[2] = test system: animal model of infarction; settings: cited from earlier work
Sprague Dawley rats = assay: MAP in rats: lodoxamide co-formulation or cromolyn infusion with Tat-NR2B9c; type: in vivo, rat; settings: for Effect on drop in MAP resulting from Tat-NR2B9c: cromolyn infused for three minutes immediately before Tat-NR2B9c, FIG. 13B
Procedure: Animals (male, Sprague Dawley) were allowed to eat and drink before surgery. Animals were put to sleep in a chamber with 2% isoflurane and 1 L oxygen. Once asleep, rat was transferred to a face mask at 1% isoflurane and a gas of 1 L oxygen. PE50 tubing was used for connection of the femoral artery and vein. These arteries and veins provide access for continual monitoring of arterial pressure and for drug infusion (50 mg per kg in a volume of 2 ml per kg injected with in 2 minutes). Surgeries were done on the left side. Animal's blood pressure and body temperature was monitored for 90 minutes.

Beagle dogs = assay: Antihistamine pre-treatment before Tat-NR2B9c in dogs; settings: benadryl 1 mg/kg 30 minutes before 12.5 mg/kg Tat-NR2B9c; female dog
[3] = test system: Sprague Dawley rats, P3VO model of stroke; assay: Pial 3 vessel occlusion (P3VO) model of stroke, infarct size; type: in vivo, rat; settings: 3 nM/g i.v. 1 h after stroke, vs saline
rat 3PVO model of stroke = assay: Rat 3PVO model of stroke, lodoxamide co-formulation; type: in vivo; settings: FIG. 15
Procedure: Methods for Three pial vessel occlusion model of ischemia (3PVO): Experiments were performed on fasted rats (free overnight access to water but not food). […] In brief, rats were anesthetized with a 0.5 ml/kg intramuscular injection of ketamine (100 mg/kg), acepromazine (2 mg/kg), and xylazine (5 mg/kg), supplemented with one-third of the initial dose as required. A rectal temperature was monitored and the animal body temperature was maintained at 37° C. by using a heating pad. The skull was exposed via a midline incision and scraped free of tissue. Using a dissecting microscope and a pneumatic dental drill, a 6- to 8-mm rectangular cranial window was made over the right somatosensory cortex (2 mm caudal and 5 mm lateral to bregma) and the loose piece of skull was removed while keeping the dura intact. The 3 pial arteriolar middle cerebral artery branches were electrically cauterized around the barrel cortex area. Incision was sutured with 3.0 silk sutures. Animals were returned to individual cages under a heating lamp to maintain body temperature until the rats fully recovered. Food and water was supplied. One hour after 3PVO ischemia the rats were injected with 3 μM/kg Tat-NR2B9c or Rv-Tat-NR2B9c intravenously through tail vein. […] Images were scanned (CanoScan, 4200F, Canon). Infarct percentage was calculated per slice using Image J software (NIH). […]

mast cells = assay: Mast cell degranulation assay (tryptase activity); type: cell-based, mouse; parameters: Mast cell degranulation (relative tryptase activity): dose or concentration left out as unconfirmed; settings: for Dose dependence of mast cell degranulation: increasing concentrations, FIG. 3
PSD95 / NMDAR 2B = PSD95 / NMDAR 2B (Homo sapiens, UniProt P78352); settings: reported by Bach; cited from earlier work
cerebral ischemia = settings: reported in WO 2008/014917; cited from earlier work

Sequence of PSD95 / NMDAR 2B (P78352 whole entry): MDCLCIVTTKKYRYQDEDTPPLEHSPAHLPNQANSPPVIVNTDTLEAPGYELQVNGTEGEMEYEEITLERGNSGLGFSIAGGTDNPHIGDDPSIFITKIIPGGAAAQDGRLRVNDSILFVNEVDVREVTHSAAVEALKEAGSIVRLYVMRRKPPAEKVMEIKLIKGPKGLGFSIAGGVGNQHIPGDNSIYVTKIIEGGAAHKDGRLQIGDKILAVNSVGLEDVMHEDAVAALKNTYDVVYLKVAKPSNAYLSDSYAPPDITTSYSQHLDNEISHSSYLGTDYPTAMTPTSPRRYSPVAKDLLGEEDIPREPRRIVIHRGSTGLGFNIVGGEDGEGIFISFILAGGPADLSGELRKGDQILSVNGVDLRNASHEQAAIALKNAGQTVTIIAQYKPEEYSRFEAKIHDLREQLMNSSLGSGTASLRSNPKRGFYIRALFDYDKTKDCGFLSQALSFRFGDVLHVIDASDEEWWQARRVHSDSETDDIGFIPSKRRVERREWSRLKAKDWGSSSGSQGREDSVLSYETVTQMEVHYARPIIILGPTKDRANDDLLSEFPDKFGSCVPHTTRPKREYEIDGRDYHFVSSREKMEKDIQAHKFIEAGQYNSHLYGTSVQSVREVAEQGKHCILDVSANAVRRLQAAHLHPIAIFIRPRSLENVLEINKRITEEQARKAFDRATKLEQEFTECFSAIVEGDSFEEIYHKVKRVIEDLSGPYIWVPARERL

NCCc1ccc(O)c(O)c1 [Dopamine]
BBB crossing [1]: Cannot cross

N[C@@H](Cc1ccc(O)c(O)c1)C(=O)O [Levodopa]
halflife [1]: halflife = 1.5 hrs

NC(=O)CN1CCCC1=O [Piracetam]
BBB crossing [1]: Cannot cross

CNC(=C[N+](=O)[O-])NCCSCc1ccc(CN(C)C)o1 [Ranitidine]
Effect of the agent itself on MAP (rats; Ranitidine only): no effect on MAP itself

CN[C@H](CC(C)C)C(=O)N[C@H]1C(=O)N[C@@H](CC(N)=O)C(=O)N[C@H]2C(=O)N[C@H]3C(=O)N[C@H](C(=O)N[C@H](C(=O)O)c4cc(O)cc(O)c4-c4cc3ccc4O)[C@H](O)c3ccc(c(Cl)c3)Oc3cc2cc(c3O[C@@H]2O[C@H](CO)[C@@H](O)[C@H](O)[C@H]2O[C@H]2C[C@](C)(N)[C@H](O)[C@H](C)O2)Oc2ccc(cc2Cl)[C@H]1O [Vacomycin]
halflife [1]: uptake, 4-6 hr

O=C(O)c1cc(=O)c2c(OCC(O)COc3cccc4oc(C(=O)O)cc(=O)c34)cccc2o1 [cromolyn, 5,5′-(2-hydroxypropane-1,3-diyl)bis(oxy)bis(4-oxo-4H-chromene-2-carboxylic acid)]
Direct activity in inhibiting infarctions ([2]; administered i.c.v.): has direct activity in inhibiting infarctions | Direct activity in inhibiting infarctions ([2]; administered intravenously): not intravenously | Effect on drop in MAP resulting from Tat-NR2B9c (Sprague Dawley rats): completely abrogate a drop in MAP | Effect on drop in MAP resulting from Tat-NR2B9c (Sprague Dawley rats; listed as Cromolyn): completely abrogated the drop in MAP | Effect on decline of MAP due to Rv-Tat-NR2B9c (rats; cromolyn before Rv-Tat-NR2B9c, FIGS. 8E and F): significantly inhibited decline of MAP values | Effect on MAP in the absence of Tat-NR2B9c (rats; cromolyn plus saline control): did not itself affect MAP

CN(C)CCOC(c1ccccc1)c1ccccc1 [diphenhydramine]
Reaction after pre-treatment (Beagle dogs): no reaction | Effect of the agent itself on blood pressure (rats; diphenhydramine 1 mg/kg): did not itself reduce blood pressure | Effect on decline of blood pressure due to Tat-NR2B9c (rats; diphenhydramine 1 mg/kg): not observed to have a significant effect | Effect of the agent itself on blood pressure before Tat-NR2B9c (rats; diphenhydramine 12.5 mg/kg): caused a sharp reduction in blood pressure | Effect on decline in blood pressure due to Tat-NR2B9c (rats; diphenhydramine 12.5 mg/kg, FIGS. 9A-D): significantly inhibited decline in blood pressure

N#Cc1cc(NC(=O)C(=O)O)c(Cl)c(NC(=O)C(=O)O)c1 [lodoxamide, 2-[2-chloro-5-cyano-3-(oxaloamino)anilino]-2-oxoacetic acid]
Effect on drop in MAP resulting from Tat-NR2B9c injection (Sprague Dawley rats; 6 mg/kg lodoxamide co-formulated with Tat-NR2B9c (3 mg/kg, 3 mM/kg elsewhere in the source), 2 minute infusion, FIG. 13A): completely abrogate the drop in MAP

COc1ccc(CN(CCN(C)C)c2ccccn2)cc1 [pyrilamine]
Reduction of maximal decline in blood pressure due to Tat-NR2B9c (rats; pyrilamine, FIGS. 10A-D): did not achieve statistical significance

H-YGRKKRRQRRRKLSSIESDV-OH [Tat-NR2B9c]
Infarct size 24 hours after P3VO surgery ([3]; female rats): complete lack of infarct | Infarct size 24 hours after P3VO surgery ([3]; male rats): significantly decreased infarct size | Infarction size relative to vehicle control (rat 3PVO model of stroke): significantly inhibited infarction size | Dose dependence of mast cell degranulation (mast cells): dose dependent

IESDV (synthetic pentamer peptide from the C-terminus of NMDAR 2B)
Inhibition of binding of NMDAR 2B to PSD95 (PSD95 / NMDAR 2B): effective in inhibiting binding of NMDAR 2B to PSD95

KLSSIESDV (Synthetic pharmacologic agent) [NR2B9c]
Mast cell degranulation (relative tryptase activity) (mast cells; FIG. 2): did not | Mast cell degranulation, Tat sequence variants (mast cells; all at 50 μM, Table 5 prints 125 mg/ml, FIG. 4): did not elicit this reaction

YGRKKRRQRRRKLSSIEADA (Synthetic Tat-NR2B9c peptide with 2 point mutations in the PSD-95 binding domain) [AA]
Dose dependence of mast cell degranulation (mast cells): dose dependent

vdseisslk-rrrqrrkkrgyin ([dV][dD][dS][dE][dI][dS][dS][dL][dK][dR][dR][dR][dQ][dR][dR][dK][dK][dR]G[dY][dI][dN]; also: retro-inverso)
Inhibition of cerebral ischemia (cerebral ischemia): effective in inhibiting cerebral ischemia
